Results as given in patent publication US20250235456A1, “METHODS OF USE FOR AZA-QUINAZOLINE COMPOUNDS” (Iambic Therapeutics, Inc., priority 2024, published 2025).
pIC50: −log10 of the molar value. Like-named read-outs stand apart in the source and are kept apart here.

Columns and labels:
CDK1/Cyclin B1 = CDK1/Cyclin B1 (Homo sapiens (Human), UniProt P06493); assay: CDK1/Cyclin B1 ADP-Glo Kinase Assay; type: biochemical
In short: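 Purchased CDK1/Cyclin B1 was pre-incubated 30 min with inhibitor at room temperature, then reacted 90 min at room temperature after adding ATP-containing substrate. ADP formed was read by two-step ADP-Glo luminescence. IC50 came from a 4-parameter fit of fractional velocity versus inhibitor concentration.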

[1] = biological target: CDK2/Cyclin E1 full length (Homo sapiens (Human), UniProt P24941); assay: CDK2/Cyclin E1 Full length ADP-Glo Kinase Assay; type: biochemical; conditions: read-out: CDK2/CyclinE1 IC50
Protocol: CDK2/Cyclin E1 Full length ADP-Glo Kinase Assay
The purpose of CDK2/Cyclin El assay is to evaluate the inhibition (% inhibition and IC50 values) of small molecule inhibitors by using a Luminescent based ADP-Glo assay. CDK2/Cyclin El full length catalyzes the production of ADP from ATP. ADP-Glo assay monitors ADP producing biochemical reactions. ADP-Glo is performed in 2 steps upon completion of kinase reaction: a combined termination of kinase reaction and depletion of remaining ATP in the first step, and conversion of generated ADP to ATP and the newly produced ATP to light output using luciferase/luciferin reaction in the second step. The luminescent signal generated is proportional to the ADP concentration produced and is correlated with the kinase activity. CDK2/Cyclin E1 was purchased from Eurofins (Cat 14-475M). […] The assay was initiated with the addition of ATP-containing substrate solution, following a 30-minute pre-incubation of enzyme and inhibitor at room temperature in the reaction mixture. The reaction was stopped after 90 minutes at room temperature by the addition of 10 μL of ADP-GLO Reagent. After a 90 minute incubation, 20 uL of Kinase Detection Reagent was added. Samples were incubated for 40 minutes, after which plate well luminescence was measured on a Envision microplate reader. The IC50 determinations were made from a plot of the fractional velocity as a function of inhibitor concentration fit to the 4 parameters IC50 equation.

CDK6/Cyclin D3 = CDK6/Cyclin D3 (Homo sapiens (Human), UniProt Q00534); assay: CDK6/Cyclin D3 ADP-Glo Kinase Assay; type: biochemical; conditions: read-out: CDK6/CyclinD3 IC50
In short: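 Commercial CDK6/Cyclin D3 pre-incubated with inhibitor 30 min at room temperature, then reaction started with ATP/substrate and run 90 min at room temperature. ADP formed measured by ADP-Glo luminescence; IC50 from fractional velocity vs inhibitor concentration fit to a 4-parameter equation.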

CDK4/Cyclin D1 [2] = biological target: T1, CDK4/Cyclin D1 (Homo sapiens (Human), UniProt P11802); assay: CDK4/Cyclin D1 Mobility Shift Assay (MSA); type: biochemical; conditions: read-out: CDK4/CyclinD1 MSA IC50
Description: CDK4/Cyclin D1 Mobility Shift Assay (MSA) The purpose CDK4/Cyclin D1 assay is to evaluate the inhibition (% inhibition and IC50 values) in the presence of small molecule inhibitors by using a fluorescence based microfluidic mobility shift assay. CDK4/Cyclin D1 catalyzes the production of ADP from ATP that accompanies the phosphoryl transfer to the substrate peptide 5-FAM-Dyrktide (5-FAM-[…]) (Perkin Elmer Peptide 34). The mobility shift assay (MSA) electrophoretically separates the fluorescently labelled peptides (substrate and phosphorylated product) following the kinase reaction. Both substrate and product are measured, and the ratio of these values is used to generate % conversion of substrate to product by the LabChip EZ Reader. Typical reaction solutions contained 2% DMSO (+/−inhibitor), 10 mM MgCl2, 1 mM EGTA, 0.05% BSA, 2 mM DTT, 0.2 mM ATP, 0.01% Brig-35, 1.5 uM 5-FAM-Dyrktide, 2.5 nM CDK4/Cyclin D1 in 50 mM HEPES buffer at pH 7.5. The reaction was initiated with the addition of substrate solution, following a 30-minute pre-incubation of enzyme and inhibitor at 22° C. in the reaction mix. The reaction was stopped after 180 minutes by the addition of 75 μL of 500 mM EDTA and measured on a Perkin Elmer EZ reader instrument. IC50 determinations were made from a plot of the fractional velocity as a function of inhibitor concentration fit to the 4 parameters IC50 equation.

OVCAR-3 cells = assay: Cell Growth Inhibition, OVCAR-3 (CellTiterGlo, 6 days); type: cell-based
Description: (§1) MCF-7 and OVCAR-3 cells were used to evaluate the anti-proliferation activity of the CDK inhibitors. MCF-7 (ATCC, HTB-22) cells are epithelial cells from a patient with ER+ metastatic adenocarcinoma. OVCAR-3 (ATCC, HTB-161) cells were derived from malignant ascites of a patient with ovarian cancer and are known to have CCNE1 amplification. Both cell lines were maintained in RPMI media supplemented with 10% fetal bovine serum. For cell growth inhibition assay, CDK inhibitors in DMSO solution were dispensed with either Echo 655 (Beckman Coulter) or Tecan D300e (TIP) into 384-well plates (Corning #3765) and the 384-well plates were UV-sterilized prior to the assay. The inhibitors were typically tested in the 10-10,000 nM concentration range with half-log serial dilutions. MCF-7 or OVCAR-3 (500 cells/30 μL/well) were added to each well using Multidrop Combi (ThermoFisher) using standard cassettes. The assay plates with cells were cultured at 37° C., 5% CO2 for 6 days. At the end of the 6-day treatment, 30 μL of CellTiterGlo 2.0 (Promega) was added to each well and the luminescent signal was read using CLARIOstar plus (BMG). The percentage of cell growth inhibition (% CGI) was calculated using the following formula % CGI=100-100×luminescencesample/luminescenecontrol. The half maximal inhibitory concentration (IC50) was determined by nonlinear curve fitting (four parameters, variable slope).

MCF-7 cells = assay: Cell Growth Inhibition, MCF-7 (CellTiterGlo, 6 days); type: cell-based
Description: as §1

CDK4/Cyclin D1 [3] = biological target: T1, CDK4/Cyclin D1; assay: CDK4/Cyclin D1 CHEF Assay; type: biochemical; conditions: AQT; read-out: CDK4/CyclinD1 AQT IC50
In short: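 Peptide substrate AQT0258 carries a Sox fluorophore whose Mg(II)-dependent fluorescence (ex 360/em 485 nm) rises on phosphorylation. Enzyme and inhibitor pre-incubated 30 min at 22 °C, substrate added, reaction run 3 h at 22 °C. IC50 from 4-parameter fit of fractional velocity vs inhibitor concentration.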

Chain of CDK1/Cyclin B1 (P06493 whole entry): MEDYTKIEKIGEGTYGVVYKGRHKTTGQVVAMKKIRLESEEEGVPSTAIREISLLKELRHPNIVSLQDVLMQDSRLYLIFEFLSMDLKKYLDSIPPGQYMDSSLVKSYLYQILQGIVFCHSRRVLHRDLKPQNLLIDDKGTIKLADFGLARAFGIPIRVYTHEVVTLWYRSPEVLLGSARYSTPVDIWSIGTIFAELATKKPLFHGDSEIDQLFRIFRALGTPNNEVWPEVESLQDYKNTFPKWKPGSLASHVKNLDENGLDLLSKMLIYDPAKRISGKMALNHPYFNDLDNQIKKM
Chain of CDK1/Cyclin B1 (P14635 whole entry partner): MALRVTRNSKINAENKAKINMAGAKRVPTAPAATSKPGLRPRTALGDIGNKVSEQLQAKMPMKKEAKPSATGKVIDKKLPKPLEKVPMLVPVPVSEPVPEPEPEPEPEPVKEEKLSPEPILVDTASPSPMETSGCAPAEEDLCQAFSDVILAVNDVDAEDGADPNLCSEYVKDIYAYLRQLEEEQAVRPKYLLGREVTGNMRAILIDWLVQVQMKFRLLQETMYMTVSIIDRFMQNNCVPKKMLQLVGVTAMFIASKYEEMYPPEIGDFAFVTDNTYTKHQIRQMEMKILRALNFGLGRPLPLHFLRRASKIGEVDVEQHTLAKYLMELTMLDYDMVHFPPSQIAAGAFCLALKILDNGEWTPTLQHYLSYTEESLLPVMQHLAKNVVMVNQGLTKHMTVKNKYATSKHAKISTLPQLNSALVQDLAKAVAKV
T1 sequence (P11802 whole entry, species assumed): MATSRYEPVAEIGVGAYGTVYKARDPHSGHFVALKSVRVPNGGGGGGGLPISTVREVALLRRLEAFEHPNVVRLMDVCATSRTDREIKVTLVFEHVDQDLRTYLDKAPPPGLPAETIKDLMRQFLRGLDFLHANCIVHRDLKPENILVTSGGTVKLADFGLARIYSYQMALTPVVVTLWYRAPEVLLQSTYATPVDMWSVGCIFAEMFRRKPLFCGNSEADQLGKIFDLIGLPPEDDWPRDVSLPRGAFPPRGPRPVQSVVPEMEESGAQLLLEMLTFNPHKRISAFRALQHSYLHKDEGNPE
T1 sequence (P24385 whole entry partner, species assumed): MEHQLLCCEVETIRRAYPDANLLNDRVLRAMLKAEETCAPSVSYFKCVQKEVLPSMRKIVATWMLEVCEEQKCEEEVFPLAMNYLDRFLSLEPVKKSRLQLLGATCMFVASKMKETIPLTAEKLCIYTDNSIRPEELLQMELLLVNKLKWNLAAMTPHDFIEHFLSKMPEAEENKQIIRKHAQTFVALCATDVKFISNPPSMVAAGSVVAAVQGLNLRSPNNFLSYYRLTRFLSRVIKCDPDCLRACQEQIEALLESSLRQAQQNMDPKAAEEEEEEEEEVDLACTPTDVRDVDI
Chain of CDK6/Cyclin D3 (Q00534 whole entry): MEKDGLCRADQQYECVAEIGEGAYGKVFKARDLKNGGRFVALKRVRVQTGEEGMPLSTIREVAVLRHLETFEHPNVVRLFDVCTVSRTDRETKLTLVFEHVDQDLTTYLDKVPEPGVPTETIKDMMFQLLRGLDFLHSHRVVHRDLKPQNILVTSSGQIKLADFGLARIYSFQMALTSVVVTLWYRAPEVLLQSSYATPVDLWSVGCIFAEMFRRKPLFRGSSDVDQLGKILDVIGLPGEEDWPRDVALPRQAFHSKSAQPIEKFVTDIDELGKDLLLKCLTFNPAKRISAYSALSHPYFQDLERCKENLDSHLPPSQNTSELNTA
Chain of CDK6/Cyclin D3 (P30281 whole entry partner): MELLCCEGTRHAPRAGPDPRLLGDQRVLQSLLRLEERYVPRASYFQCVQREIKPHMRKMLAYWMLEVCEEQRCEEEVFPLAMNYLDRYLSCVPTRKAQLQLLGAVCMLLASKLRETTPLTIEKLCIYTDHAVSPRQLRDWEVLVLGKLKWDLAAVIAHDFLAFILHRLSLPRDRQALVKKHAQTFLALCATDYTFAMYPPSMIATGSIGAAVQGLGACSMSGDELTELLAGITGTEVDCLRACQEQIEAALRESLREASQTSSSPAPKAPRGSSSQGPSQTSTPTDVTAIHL

pIC50 (CDK1/Cyclin B1)	pIC50 [1]	pIC50 (CDK6/Cyclin D3)	pIC50 (CDK4/Cyclin D1 [2])	pIC50 (OVCAR-3 cells; Homo sapiens, 144 h)	pIC50 (MCF-7 cells; Homo sapiens, MCF7, 144 h)	pIC50 (CDK4/Cyclin D1 [3])	pIC50 (OVCAR-3 cells)	pIC50 (MCF-7 cells)	Compound
> 6.70	> 6.70	> 6.70	> 6.70	–	–	–	–	–	CS(=O)(=O)N1CCC(Nc2ncc3ccnc(N4C[C@H]5c6ccccc6S(=O)(=O)[C@H]5C4)c3n2)CC1 [Compound 16, (3aR,8bR)-2-(2-((1-(methylsulfonyl)piperidin-4-yl)amino)pyrido[3,4-d]pyrimidin-8-yl)-2,3,3a,8b-tetrahydro-1H-benzo[4,5]thieno [2,3-c]pyrrole 4,4-dioxide]
< 5.70	6.30 to 6.70	> 6.70	> 6.70	–	–	–	–	–	CCN1CC2(C1)CN(c1ccc(Nc3ncc4ccnc(N5CCC6(C5)CC6(F)F)c4n3)nc1)C2 (stereo not shown) [Compound 21, 8-(1,1-difluoro-5-azaspiro[2.4]heptan-5-yl)-N-(5-(6-ethyl-2,6-diazaspiro[3.3]heptan-2-yl)pyridin-2-yl)pyrido[3,4-d]pyrimidin-2-amine]
> 6.70	–	> 6.70	–	5.70 to 6.30	5.70 to 6.30	> 6.70	–	–	Cc1cc2cnc(NC3CCN(S(C)(=O)=O)CC3)nc2c(C2CC(O)(C(F)F)C2)n1 (stereo not shown) [Compound 93, 1-(difluoromethyl)-3-(6-methyl-2-((1-(methylsulfonyl)piperidin-4-yl)amino)pyrido[3,4-d]pyrimidin-8-yl)cyclobutan-1-ol]
> 6.70	> 6.70	> 6.70	–	–	–	> 6.70	5.70 to 6.30	5.70 to 6.30	1-cyclopropyl-3-(6-methyl-2-((1-(methylsulfonyl)piperidin-4-yl)amino)pyrido[3,4-d]pyrimidin-8-yl)cyclobutan-1-ol [Compound 85]
